Measured values: paper PMC9645344, “Serotonin-releasing agents with reduced off-target effects” (Molecular Psychiatry, 2022)

Columns and labels:
VMATs = assay: VMAT uptake inhibition assay in PC12 cells; assay type: cell-based; conditions: all at 30 µM, relative to inhibition by 30 µM reserpine
Method: VMAT uptake inhibition assays were conducted as previously described, with some modifications. In brief, […] PC12 cells per well were seeded in 24-well plates the day before experimentation. The cells were pretreated with 100 nM nisoxetine and mazindol to inhibit non-specific binding. PC12 cells were then preincubated with 200 µM digitonin to permeabilize membranes and were kept at room temperature on a plate shaker at low velocity for 30 min. Cells were treated with test drugs and shaken for another 10 min. Tritiated substrate (0.05 µM [^3H]5-HT) was added, and the cells incubated on the plate shaker for 30 min. To terminate uptake, cells were transferred into 1.5 ml Eppendorf tubes, centrifuged at 5000 rpm for 5 min. The supernatant was aspirated, cells were washed with cold KHB, recentrifuged and lysed with 200 µl SDS. The solutions were transferred into vials containing 2 ml scintillation cocktail and radioactivity was determined via beta-scintillation counting (Perkin Elmer, Waltham, MA, USA). For analysis, inhibitory potency of test drugs was normalized to uptake inhibition caused by the potent VMAT inhibitor reserpine.

[1] = system: extracellular 5-HT and DA in the NAc; assay: In vivo microdialysis in the NAc of freely moving mice
Method: All in vivo experiments were performed in adult mice (>6 weeks old). For the photometry and microdialysis experiments, which were carried out in Florida, male C57BL/6J mice from The Jackson Laboratory (Bar Harbor, ME, USA) were group-housed in polycarbonate cages (GM500, Tecniplast, Buguggiate, Italy) with lights on from 7 a.m. to 7 p.m. Food and water were provided ad libitum. Photometry and microdialysis experiments were performed in accordance with a protocol approved by the Institutional Animal Care and Use Committee at Florida Atlantic University. For the behavioral experiments, which were carried out in Vienna, C57BL/6N mice from Charles River (Sulzfeld, Germany) were group-housed in polycarbonate cages with lights on from 7 a.m. to 7 p.m. Food and water were provided ad libitum. Behavioral experiments were performed in accordance with a protocol approved by the Austrian national ethical committee on animal care and use (Bundesministerium für Wissenschaft und Forschung: BMWFW-66.009/0016-WF/V/3b/2015). All animal procedures were conducted in agreement with the ARRIVE guidelines and the U.K. Animal (Scientific Procedures) Act, 1986, and associated guidelines, EU Directive 2010/63/EU for animal experiments. Mice were given at least 1 week to acclimate before being used in any experiments.
Mice were anesthetized with isoflurane (5% induction, 2% maintenance) and placed into a stereotaxic frame (Kopf Instruments, Tujunga, CA, USA) oriented in the flat skull position. Ophthalmic ointment was applied to prevent drying of the eyes. Ketoprofen (10 mg kg^−1) was administered subcutaneously (s.c.), whereas bupivacaine and lidocaine were administered locally (s.c.; 100 µl of sterile saline containing 0.05% bupivacaine and 0.2% lidocaine) to the surgical site atop the head. A midline incision was made through the skin on the dorsal surface of the head to expose the skull. Fascia was removed, coordinates for the NAc were determined relative to bregma: anterior/posterior = 1.54 mm; medial/lateral = 0.7 mm; dorsal/ventral = −4.1 mm. A 1 mm burr hole was drilled through the skull. […]
Microdialysis was performed based on a previous publication. […] Dialysate samples were collected on ice and stored at −80 °C until they were analyzed using high-performance liquid chromatography with electrochemical detection. Drug-induced changes in extracellular DA and 5-HT were expressed as fold change compared to basal monoamine levels obtained during the first three pretreatment samples.

human SERT = target: T1, human SERT (Homo sapiens, UniProt P31645); assay: [3H]5-HT release assay in HEK293 cells (superfusion); assay type: cell-based; conditions: 10 µM, SERT-expressing HEK293 cells
T1 construct: expressed in transfected cells
Method: HEK293 cells stably expressing SERT were seeded onto PDL-coated glass coverslips (5 mm diameter) that were placed into 96-well plates at a density of 40,000 cells per well the day before the experiment. Cells were preloaded with [^3H]5-HT (0.4 µM, 20 min at 37 °C). Subsequently, the cells were transferred into small chambers with a total volume of 200 µl and superfused with KHB at a flow rate of 0.7 ml per min for 40 min to establish a stable baseline before the collection of 2-min fractions was initiated. For each experiment, three basal fractions were collected before the cells were exposed to various concentrations (given in the figure legends) of the test drugs for five fractions. Subsequently, the cells were superfused with 1% SDS for three final fractions that served to determine the total amount of radioactivity present within the cells at the end of each experimental run. The amount of tritium within each fraction was determined by liquid scintillation counting, and release was expressed as percentage of radioactivity released in relation to the total radioactivity present at the beginning of that fraction. Observations from superfusion experiments were excluded in case of premature exposure to SDS.

[2] = 5 mg kg-1 with or without fluoxetine 10 mg kg-1, repeated measures two-way ANOVA

T1 sequence (P31645 whole entry, the tested form may be a part): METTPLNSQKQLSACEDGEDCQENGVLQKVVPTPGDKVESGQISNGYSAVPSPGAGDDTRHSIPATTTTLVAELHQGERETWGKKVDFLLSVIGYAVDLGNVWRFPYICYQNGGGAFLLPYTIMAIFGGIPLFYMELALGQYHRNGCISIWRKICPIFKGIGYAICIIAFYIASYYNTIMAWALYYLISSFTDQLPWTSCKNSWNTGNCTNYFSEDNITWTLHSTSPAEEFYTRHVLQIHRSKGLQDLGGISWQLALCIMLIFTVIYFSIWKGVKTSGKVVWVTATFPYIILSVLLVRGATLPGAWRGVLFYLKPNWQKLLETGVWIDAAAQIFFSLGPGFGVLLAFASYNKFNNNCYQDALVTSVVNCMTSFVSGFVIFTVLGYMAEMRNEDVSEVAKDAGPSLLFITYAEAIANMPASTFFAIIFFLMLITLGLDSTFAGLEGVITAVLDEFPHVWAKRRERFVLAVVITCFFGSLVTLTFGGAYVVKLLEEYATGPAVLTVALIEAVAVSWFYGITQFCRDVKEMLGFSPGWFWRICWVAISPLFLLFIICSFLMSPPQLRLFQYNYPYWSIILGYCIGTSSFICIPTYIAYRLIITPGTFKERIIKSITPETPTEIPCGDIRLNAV

Structure (SMILES)	inhibition of VMAT-mediated transport compared to MDMA (VMATs)	dialysate 5-HT with co-administered fluoxetine ([1]; 10 mg kg-1 intraperitoneal plus fluoxetine 10 mg kg-1)	effect on release of preloaded [3H]5-HT (human SERT)	dialysate 5-HT versus baseline ([1]; 5 mg kg-1 intraperitoneal, NAc)	effect of drug treatment (alone versus plus fluoxetine) on dialysate 5-HT [1, 2]	effect of drug treatment (alone versus plus fluoxetine) on dialysate DA [1, 2]
CN[C@@H](C)C(=O)c1ccc(C(F)(F)F)cc1 [S-4-TFMMC, 4-trifluoromethyl-N-methylcathinone]	significantly less effective	fluoxetine markedly blunted the amount of dialysate 5-HT	robustly increased			
Cc1ccc(C(=O)[C@H](C)N)cc1 [S-4-MC, 4-methylcathinone]	significantly less effective		robustly increased	significantly elevated 5-HT in the dialysate	drug-treatment significantly affected 5-HT in the dialysate	but not DA
